How the values were obtained:
[1] = system: mutant (Q111) Htt; experiment: Htt mRNA levels in Q111 striatal cells, qPCR; type: cell-based, mouse; settings: Q111 striatal cells, 48 hours
Protocol: Cell culture—HEK293T, HeLa, MCF7, Jurkat and mouse embryonic fibroblasts (MEFs) cells were grown and maintained in Dulbecco's modified Eagle's medium supplemented with 10% fetal calf serum (Gibco) and 1% penicillin-streptomycin. To avoid NF-κB activity, HeLa cells were kept from reaching confluence and re-plated no more than 10 times following initial thawing. To induce NF-κB activity, cells were treated with […] recombinant human TNF-α (Peprotech) for the indicated times. STHdh Q111 and STHdh Q7 striatal cell lines (Coriell Institute for Medical Research) were grown in Dulbecco's modified Eagle's medium supplemented with 10% fetal calf serum (Gibco), 1% penicillin-streptomycin and 0.4 mg/ml G418 at 33° C. The cells were re-plated no more than 5-6 times, as recommended.
Huntington's disease (HD) is an inherited genetic disorder caused by expansion trinucleotide CAG repeats (36 and higher) encoding glutamine (Q) in the huntingtin (Htt) gene. Expression of the mutant gene in neurons of the striatum and the frontal cortex leads to degeneration of neuronal cells that control body movements, emotions and intellect. […] To examine the potential effect of SPIs in this context, striatal cell lines established from wild type (Q7) or from mutant (Q111) Htt knock-in mice were used. In these cell lines the coding region of the first exon of the mouse Htt gene was replaced with the same region of human wild type (Q7) or mutant (Q111) Htt, as schematically shown in FIG. 6A. The two cell lines were treated for 48 hours with the identified SPIs and following the levels of Htt mRNA were determined.
The compounds were tested as described in Example 4 hereinabove. In brief, Q111 (or Q7, where indicated) expressing Striatal cells were treated with the tested compound at the indicated concentrations for 48 hours. Then, RNA was extracted and levels of Htt mRNA were determined by qRT-PCR and normalized to β-actin. The data was analysed using GraphPad Prism software.

[2] = system: A20 mRNA; experiment: Splicing of A20: mature/immature transcripts, RT-qPCR; type: cell-based, human; settings: following TNFα induction, 50 μM
Protocol: Bars represent the mean of at least 3±SEM independent experiments. The asterisks denote statistical significance differences relative to DMSO+TNFα control according to Student's t tests (typically one tailed, paired): *p<0.05; **p<0.01; ***p<0.005; ****p<0.001. […] Shown are mRNA levels of A20 (normalized to GAPDH) in Hela cells treated with SPI-21 and TNFα and incubated with actinomycin D for the indicated time points, as determined by real-time qPCR. The data points present the mean of 3±SEM independent experiments. […] Shown are levels of mature and immature transcripts in cells incubated for 1 hour with DMSO (vehicle control) or 50 μM of SPI-21 or SPI-18 followed by treatment with TNFα for an additional one hour, as determined by real-time qPCR using primers spanning exons 3 and 4 (mature, black arrows shown in the scheme of G, SEQ ID NOs: 47 and 48) or intron 1 and exon 2 (immature, red arrows shown in the scheme of G, SEQ ID NOs: 49 and 50). […] DMSO (vehicle control), SPI-21 or SPI-18 treated cells were induced by TNFα for the indicated times and the levels of IκBα and β-Tubulin proteins were analyzed by western blot as indicated. […] The occupancy of the A20 gene was analyzed by qPCR using primers from the first (A, SEQ ID NOs: 55 and 56), third (B, SEQ ID NOs: 57 and 58) and last (C, SEQ ID NOs: 59 and 60) exon-intron junctions. […]

[3] = system: replication-dependent histone genes; experiment: Histone gene levels after 24 hours, cDNA with random hexamers, qPCR; type: cell-based, human
Protocol: A schematic illustration of a histone gene structure is shown on the top. For polyA+ RNA analysis, cDNA was prepared with a poly-dT oligonucleotide. In each analysis the levels were normalized to GAPDH; and the bars present the mean of 3±SEM independent experiments. * P<0.05 relative to DMSO (vehicle control). […] The data represent the means±SEMs of 3 independent experiments. The asterisks denote statistically significant differences relative to DMSO; according to Student's t tests (typically one-tailed, paired): *p<0.05; **p<0.01; ***p<0.005.
Since the RNA-seq following treatment with SPI-21 detects only polyadenylated transcripts and the treatment was effected for 2 hours, during which only a fraction of cells is in S-phase, an effect on histone genes was not found. Thus, to investigate further the regulation of histone genes by Spt5 using the identified SPIs, cells were treated for 24 hours with SPI-21 or SPI-18, to allow all cells to pass S-phase at least once. Following, mRNA was extracted and cDNA was prepared using random hexamers and the levels of 4 histone genes were determined. […] To this end, cDNA prepared by random hexamer and Poly-T the ratio between total and poly-A tailed histone genes was determined. […]

Structure (SMILES)	Down-regulating transcription of Mutant Htt (i.e. inhibiting transcription elongation of mutant Htt gene induced by Spt5) [1]	mature/immature A20 mRNA ratio [2]	expression of the selected histone genes [3]
Nc1ccccc1SC(CC(=O)c1cccs1)c1cccs1 (stereo not drawn) [SPI-18]	+	clear decrease in mature/immature ratio	diminished expression of the selected histone genes
COc1ccc(C=CC(=O)c2cc(O)ccc2O)cc1 [SPI-21]	+	clear decrease in mature/immature ratio	diminished expression of the selected histone genes
